Experimental data from patent US8217048B2, “Inhibitors of serine proteases, particularly HCV NS3-NS4A protease” (Vertex Pharmaceuticals Incorporated, priority 2003, dated 2012).

Experiments:
HCV NS3-NS4A protease = target: T1, HCV NS3-NS4A protease (Hepatitis C virus genotype 1a, UniProt P27958); assay: HCV Ki Assay (enzyme, Example 5); format: biochemical; conditions: Ki values, tested according to Example 5 (enzyme); 5AB substrate, tNS3 with KK4A
T1 construct: The buffer, KK4A, DTT, and tNS3 were combined
T1 sequence (P27958 1658-1711): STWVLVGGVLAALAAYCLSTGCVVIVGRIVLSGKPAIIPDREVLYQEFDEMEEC
T1 sequence (P27958 1027-1208): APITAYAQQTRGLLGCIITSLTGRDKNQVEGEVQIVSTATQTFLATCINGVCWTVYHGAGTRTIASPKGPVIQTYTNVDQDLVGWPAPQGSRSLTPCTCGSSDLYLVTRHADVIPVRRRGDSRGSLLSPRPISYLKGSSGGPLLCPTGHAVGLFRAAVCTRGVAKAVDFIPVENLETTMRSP
Description: HPLC Microbore Method for Separation of 5AB Substrate and Products
NH2-Glu-Asp-Val-Val-(alpha)Abu-Cys-Ser-Met-Ser-Tyr-COOH
A stock solution of 20 mM 5AB (or concentration of your choice) was made in DMSO w/0.2M DTT. This was stored in aliquots at −20 C.
Buffer: 50 mM HEPES, pH 7.8; 20% glycerol; 100 mM NaCl
Total assay volume was 100 μL
The buffer, KK4A, DTT, and tNS3 were combined; distributed 78 μL each into wells of 96 well plate. This was incubated at 30 C for ˜5-10 min.
2.5 μL of appropriate concentration of test compound was dissolved in DMSO (DMSO only for control) and added to each well. This was incubated at room temperature for 15 min.
Initiated reaction by addition of 20 μL of 250 μM 5AB substrate (25 μM concentration is equivalent or slightly lower than the Km for 5AB).
Incubated for 20 min at 30 C.
Terminated reaction by addition of 25 μL of 10% TFA
Transferred 120 μL aliquots to HPLC vials
Separated SMSY product from substrate and KK4A by the following method:
Microbore Separation Method:
Instrumentation: Agilent 1100
Column thermostated chamber G1316A
Diode array detector G1315A
Solvent A=HPLC grade water+0.1% TFA
Solvent B=HPLC grade acetonitrile+0.1% TFA
Stop time: 17 min Post-run time: 10 min.

[1] = tested on: Cells containing hepatitis C virus (HCV) replicon; assay: HCV Replicon Cell Assay (Example 4); format: cell-based; conditions: 48 h, tested according to Example 4 (cell), 50% inhibition of HCV RNA level, 48-hour incubation
Description: HCV Replicon Cell Assay Protocol
Cells containing hepatitis C virus (HCV) replicon were maintained in DMEM containing 10% fetal bovine serum (FBS), 0.25 mg per ml of G418, with appropriate supplements (media A).
On day 1, replicon cell monolayer was treated with a trypsin:EDTA mixture, removed, and then media A was diluted into a final concentration of 100,000 cells per ml wit. 10,000 cells in 100 ul were plated into each well of a 96-well tissue culture plate, and cultured overnight in a tissue culture incubator at 37° C.
On day 2, compounds (in 100% DMSO) were serially diluted into DMEM containing 2% FBS, 0.5% DMSO, with appropriate supplements (media B). The final concentration of DMSO was maintained at 0.5% throughout the dilution series.
Media on the replicon cell monolayer was removed, and then media B containing various concentrations of compounds was added. Media B without any compound was added to other wells as no compound controls.
Cells were incubated with compound or 0.5% DMSO in media B for 48 hours in a tissue culture incubator at 37° C. At the end of the 48-hour incubation, the media was removed, and the replicon cell monolayer was washed once with PBS and stored at −80° C. prior to RNA extraction.
Culture plates with treated replicon cell monolayers were thawed, and a fixed amount of another RNA virus, such as Bovine Viral Diarrhea Virus (BVDV) was added to cells in each well, RNA extraction reagents (such as reagents from RNeasy kits) were added to the cells immediately to avoid degradation of RNA. Total RNA was extracted according the instruction of manufacturer with modification to improve extraction efficiency and consistency. Finally, total cellular RNA, including HCV replicon RNA, was eluted and stored at −80° C. until further processing.
A Taqman real-time RT-PCR quantification assay was set up with two sets of specific primers and probe. One was for HCV and the other was for BVDV. Total RNA extractants from treated HCV replicon cells was added to the PCR reactions for quantification of both HCV and BVDV RNA in the same PCR well. Experimental failure was flagged and rejected based on the level of BVDV RNA in each well. The level of HCV RNA in each well was calculated according to a standard curve run in the same PCR plate. The percentage of inhibition or decrease of HCV RNA level due to compound treatment was calculated using the DMSO or no compound control as 0% of inhibition. The IC50 (concentration at which 50% inhibition of HCV RNA level is observed) was calculated from the titration curve of any given compound.

| SMILES | Ki (HCV NS3-NS4A protease) | IC50 [1] |
| --- | --- | --- |
| CCC[C@H](NC(=O)[C@@H]1C[C@@H](Oc2ccc(F)c(F)c2)CN1C(=O)[C@@H](NC(=O)[C@@H](NC(=O)c1cnccn1)C1CCCCC1)C(C)(C)C)C(=O)C(=O)NC1CC1 [Compound 54] | < 100 nM | < 500 nM |
| CCC[C@H](NC(=O)[C@@H]1C[C@@H](Oc2ccnc3ccccc23)CN1C(=O)[C@@H](NC(=O)[C@@H](NC(=O)c1cnccn1)C1CCCCC1)C(C)(C)C)C(=O)C(=O)NC1CC1 [Compound 39] | < 100 nM | < 500 nM |
| CCCC(NC(=O)C1CC(Oc2cccc(Cl)c2Cl)CN1C(=O)C(NC(=O)C(NC(=O)c1cnccn1)C1CCCCC1)C(C)(C)C)C(=O)C(=O)NC1CC1 (centres unmarked) [Compound 5] | 100 to 300 nM | 500 to 1000 nM |
| CCC[C@H](NC(=O)C1C[C@@H](Oc2cccc(F)c2F)CN1C(=O)[C@@H](NC(=O)[C@@H](NC(=O)c1cnccn1)C1CCCCC1)C(C)(C)C)C(=O)C(=O)NC1CC1 (some centres unmarked) [Compound 7] | 100 to 300 nM | < 500 nM |
| CCC[C@H](NC(=O)[C@@H]1C[C@@H](Oc2ccc([N+](=O)[O-])cn2)CN1C(=O)[C@@H](NC(=O)[C@@H](NC(=O)c1cnccn1)C1CCCCC1)C(C)(C)C)C(=O)C(=O)NC1CC1 [Compound 26] | 100 to 300 nM | < 500 nM |
| CCC[C@H](NC(=O)[C@@H]1C[C@@H](Oc2ncnc3ccccc23)CN1C(=O)[C@@H](NC(=O)[C@@H](NC(=O)c1cnccn1)C1CCCCC1)C(C)(C)C)C(=O)C(=O)NC1CC1 [Compound 42] | < 100 nM | < 500 nM |
| CCC[C@H](NC(=O)C1C[C@@H](Oc2ccccc2F)CN1C(=O)[C@@H](NC(=O)[C@@H](NC(=O)c1cnccn1)C1CCCCC1)C(C)(C)C)C(=O)C(=O)NC1CC1 (some centres unmarked) [Compound 4] | 100 to 300 nM | 500 to 1000 nM |
| CCCC(NC(=O)[C@@H]1C[C@@H](Oc2ccccc2)CN1C(=O)[C@@H](NC(=O)[C@@H](NC(=O)c1cnccn1)C1CCCCC1)C(C)(C)C)C(=O)C(=O)NC1CC1 (some centres unmarked) [Compound 34] | 100 to 300 nM | < 500 nM |
| CCC[C@H](NC(=O)[C@@H]1C[C@@H](Oc2ccc(C(=O)OC(C)C)cc2)CN1C(=O)[C@@H](NC(=O)[C@@H](NC(=O)c1cnccn1)C1CCCCC1)C(C)(C)C)C(=O)C(=O)NC1CC1 [Compound 61] | < 100 nM | < 500 nM |
| CCC[C@H](NC(=O)[C@@H]1C[C@@H](Oc2cccc(Cl)c2)CN1C(=O)[C@@H](NC(=O)[C@@H](NC(=O)c1cnccn1)C1CCCCC1)C(C)(C)C)C(=O)C(=O)NC1CC1 [Compound 66] | 100 to 300 nM | < 500 nM |
